Several values for one entry are separate records, joined by “and”; a condition that tells them apart may be missing. Identical values can stand only once. Like-named read-outs stand apart in the source and are kept apart here.
How the values were obtained:
[1] = test system: VIOAR; test: greenhouse post-emergence herbicidal test; type: in vivo, Viola arvensis; design: key to herbicidal activity against VIOAR found / herbicidal activity against VIOLA found: rating on a scale from 0 to 100; settings: post emergence; for pest or weed control at 62.5 g/ha / pest or weed control at 125 g/ha: Viola arvensis, post-emergence, read-out: herbicidal activity against VIOAR found
In short: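 Herbicidal activity scored on a 0 (no damage) to 100 (plants destroyed) scale, usually 20 days after water-based spraying of 1–15 cm plants grown in loamy sand at 10-25 °C or 20-35 °C depending on species. Components were applied from 10% emulsion concentrates; Colby's E=X+Y−(X·Y/100) gives the additive expectation.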

[2] = test system: ABUTH; test: greenhouse post-emergence herbicidal test; type: in vivo, Abutilon theophrast; design: key to herbicidal activity against ABUTH found: rating on a scale from 0 to 100; settings: post emergence; for pest or weed control at 31.25 g/ha / pest or weed control at 62.5 g/ha: Abutilon theophrasti, post-emergence, 480 h, read-out: herbicidal activity against ABUTH found
In short: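 Visual rating at 20 days after treatment used a 0–100 scale, where 100 meant no emergence or complete destruction of above-ground parts. Seedlings of 1–15 cm, grown at species-dependent 10-25° C or 20-35° C, received water-based spray liquor containing the formulated components.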

[3] = 6 days after treatment, g/ha a.i.: I.1 31.25, B.96 35, mixture 31.25+35
[4] = 6 days after treatment, g/ha a.i.: I.1 31.25, B.96 70, mixture 31.25+70
[5] = g/ha a.i.: I.1 62.5, B.52 2.5, mixture 62.5+2.5

## O=C(O)c1cc(C2CC2)nc2onc(C3CC3)c12 [I.1]
[1]; I.1 alone 62.5 g/ha a.i.
  pest or weed control at 62.5 g/ha: 30%
[1]; 62.5 g/ha a.i.
  pest or weed control at 62.5 g/ha: 0%
[1]; 125 g/ha a.i.
  pest or weed control at 125 g/ha: 90%
[1]; single active, 62.5 g/ha a.i.
  pest or weed control at 62.5 g/ha: 20%
  herbicidal activity against VIOLA found: 20
[1]; single active, 125 g/ha a.i.
  pest or weed control at 125 g/ha: 30%
  herbicidal activity against VIOLA found: 30
[1]; [3]
  herbicidal activity against VIOAR found: 0
[1]; [4]
  herbicidal activity against VIOAR found: 0
[1]; 6 days after treatment, g/ha a.i.: I.1 31.25, B.96 140, mixture 31.25+140
  herbicidal activity against VIOAR found: 0
[1]; 6 days after treatment, g/ha a.i.: I.1 31.25, naptalam 200, mixture 31.25+200
  herbicidal activity against VIOAR found: 0
[1]; 6 days after treatment, g/ha a.i.: I.1 62.5, B.96 35, mixture 62.5+35
  herbicidal activity against VIOAR found: 0
[1]; 6 days after treatment, g/ha a.i.: I.1 62.5, B.96 70, mixture 62.5+70
  herbicidal activity against VIOAR found: 0
[1]; 6 days after treatment, g/ha a.i.: I.1 62.5, B.96 140, mixture 62.5+140
  herbicidal activity against VIOAR found: 0
[1]; 6 days after treatment, g/ha a.i.: I.1 62.5, naptalam 100, mixture 62.5+100
  herbicidal activity against VIOAR found: 0
[1]; 6 days after treatment, g/ha a.i.: I.1 62.5, naptalam 200, mixture 62.5+200
  herbicidal activity against VIOAR found: 0
[1]; I.1 62.5 g/ha, B.89 12.5 g/ha a.i.
  herbicidal activity against VIOAR found: 25
[1]; application rate a.i.: I.1 31.25 g/ha, B.84 (paraquat-dichloride) 17.5 g/ha, alone or as mixture (composition 1.84)
  herbicidal activity against VIOAR found: 40
[1]; application rate a.i.: I.1 62.5 g/ha, B.100 (isoxaflutole) 12.5 g/ha, alone or as mixture (composition 1.100)
  herbicidal activity against VIOAR found: 30
[1]; application rate a.i.: I.1 62.5 g/ha, B.30 (imazamox) 3.75 g/ha, alone or as mixture (composition 1.030)
  herbicidal activity against VIOAR found: 0
[1]; application rate a.i.: I.1 62.5 g/ha, B.84 (paraquat-dichloride) 17.5 g/ha, alone or as mixture (composition 1.84)
  herbicidal activity against VIOAR found: 40
[1]; applied alone at 125 g/ha a.i.
  herbicidal activity against VIOAR found: 60 and 80
[1]; [5]
  herbicidal activity against VIOAR found: 0
[1]; g/ha a.i.: I.1 62.5, B.63 0.5, mixture 62.5+0.5
  herbicidal activity against VIOAR found: 0
[1]; g/ha a.i.: I.1 125, B.52 2.5, mixture 125+2.5
  herbicidal activity against VIOAR found: 0
[1]; g/ha a.i.: I.1 125, B.52 5, mixture 125+5
  herbicidal activity against VIOAR found: 0
[1]; g/ha a.i.: I.1 125, B.63 1, mixture 125+1
  herbicidal activity against VIOAR found: 0
[1]; single active, 15.625 g/ha a.i.
  herbicidal activity against VIOLA found: 0
[2]; I.1 alone 31.25 g/ha a.i.
  pest or weed control at 31.25 g/ha: 0%
[2]; I.1 alone 62.5 g/ha a.i.
  pest or weed control at 62.5 g/ha: 65%
[2]; 62.5 g/ha a.i.
  pest or weed control at 62.5 g/ha: 25%
[2]; I.1 31.25 g/ha a.i.
  pest or weed control at 31.25 g/ha: 20%
[2]; single active, 31.25 g/ha a.i.
  pest or weed control at 31.25 g/ha: 0%
[2]; [3]
  herbicidal activity against ABUTH found: 35
[2]; [4]
  herbicidal activity against ABUTH found: 35
[2]; 6 days after treatment, g/ha a.i.: I.1 31.25, naptalam 100, mixture 31.25+100
  herbicidal activity against ABUTH found: 35
[2]; I.1 31.25 g/ha, B.88 1 g/ha a.i.
  herbicidal activity against ABUTH found: 60
[2]; I.1 31.25 g/ha, B.89 25 g/ha a.i.
  herbicidal activity against ABUTH found: 60
[2]; I.1 62.5 g/ha, B.167 62.5 g/ha a.i.
  herbicidal activity against ABUTH found: 0
[2]; I.1 62.5 g/ha, B.167 125 g/ha a.i.
  herbicidal activity against ABUTH found: 0
[2]; a.i. g/ha: I.1 7.8, B.67 125, 20 days after treatment
  herbicidal activity against ABUTH found: 0%
[2]; a.i. g/ha: I.1 15.6, B.67 125, 20 days after treatment
  herbicidal activity against ABUTH found: 30%
[2]; a.i. g/ha: I.1 31.25, B.67 125, 20 days after treatment
  herbicidal activity against ABUTH found: 60%
[2]; a.i. g/ha: I.1 31.25, B.67 125, 20 days after treatment, sub-table r36-r43
  herbicidal activity against ABUTH found: 60%
[2]; a.i. g/ha: I.1 62.5, B.67 125, 20 days after treatment
  herbicidal activity against ABUTH found: 90%
[2]; a.i. g/ha: I.1 62.5, B.69 25, 20 days after treatment
  herbicidal activity against ABUTH found: 50%
[2]; application rate a.i.: I.1 20.8 g/ha, B.107 (topramezone) 6 g/ha, alone or as mixture (composition 1.107)
  herbicidal activity against ABUTH found: 0
[2]; application rate a.i.: I.1 31.25 g/ha, B.139 (pyroxasulfone) 25 g/ha, alone or as mixture (composition 1.139)
  herbicidal activity against ABUTH found: 10
[2]; application rate a.i.: I.1 62.5 g/ha, B.107 (topramezone) 6 g/ha, alone or as mixture (composition 1.107)
  herbicidal activity against ABUTH found: 66
[2]; applied alone at 31.25 g/ha a.i.
  herbicidal activity against ABUTH found: 30 and 25
[2]; applied alone at 62.5 g/ha a.i.
  herbicidal activity against ABUTH found: 50 and 85
[2]; applied alone at 125 g/ha a.i.
  herbicidal activity against ABUTH found: 60
[2]; g/ha a.i.: I.1 31.25, B.20 2, mixture 31.25+2
  herbicidal activity against ABUTH found: 15
[2]; g/ha a.i.: I.1 31.25, B.20 4, mixture 31.25+4
  herbicidal activity against ABUTH found: 15
[2]; g/ha a.i.: I.1 31.25, B.24 2, mixture 31.25+2
  herbicidal activity against ABUTH found: 15
[2]; g/ha a.i.: I.1 31.25, B.52 2.5, mixture 31.25+2.5
  herbicidal activity against ABUTH found: 15
[2]; g/ha a.i.: I.1 31.25, B.52 5, mixture 31.25+5
  herbicidal activity against ABUTH found: 15
[2]; [5]
  herbicidal activity against ABUTH found: 60

— US10881110B2, “Herbicidal compositions comprising isoxazolo[5,4-b]pyridines” (BASF SE, priority 2014, dated 2021)
